Results from US20090221538A1, “METHODS OF TREATING MULTIPLE SCLEROSIS BY ADMINISTERING PULSE DOSE CALCITRIOL” (priority 2008, published 2009).
“Also recorded” adds a separate entry of the source.

Tests used:
[1] = Spinal cord 1,25-(OH)2D3 extraction and radioimmunoassay; assay type: in vivo, mouse; settings: 200 ng 1,25-(OH)2D3 pulse dose plus vitamin D3 supplementation; end of the study
Description: The vitamin D3 and 1,25-(OH)2D3 were obtained from Sigma Chemical Co. The vitamin D3 was dissolved in safflower oil and stored in the dark at 5° C. The 1,25-(OH)2D3 was dissolved in 100% ethanol (1 mg/mL) and stored in the dark under nitrogen gas at −20° C. The concentration of 1,25-(OH)2D3 was determined by spectral analysis. Animals with stage 2.3±0.3 were randomized into treatment groups. The details of the treatments are given in the figure legends and table footnotes. The synthetic diet used in some experiments was formulated to contain all essential nutrients except vitamin D3 and was prepared exactly as we described (Spach and Hayes, 2005, J. Immunol. 175:4119-4126). For experiments using supplementary vitamin D3, the placebo group was fed the synthetic diet ad libidum without added vitamin D3, whereas the vitamin D3-supplemented group was fed the synthetic diet ad libidum with vitamin D3 added in an amount to provide 1 μg/d, calculated based on a daily measured consumption of 4.0 g dry weight of diet per mouse. Fresh synthetic diet was provided three times per week. At several times during the study, mice were weighed and blood samples were obtained from the tail vein. At the conclusion of the study, the mice were euthanized, a blood sample was obtained, perfusion was done, and the spinal cords and optic nerves were removed. […]

splenocytes = assay: Splenocyte staining and FACS analysis after pulse dose; assay type: in vivo, mouse
Description: For flow cytometric analysis, splenocytes were dissociated into ice-cold Hank's balanced salt solution with HEPES buffer, and RBC were depleted. Duplicate samples (10^6 cells/sample) were stained (30-45 min on ice) with optimal amounts of the mAb conjugates in staining buffer (PBS pH 7.3 with 5% heat-inactivated FBS and 0.1% NaN3). Reference samples stained with single-color mAb served as controls to select fluorescence gates and flow cytometer compensation. The fluorescent mAb conjugates used for this analysis were FITC-labeled mAb to CD4 (clone L3T4) and APC-labeled mAb to CD11b (clone Macla) from Southern Biotechnology, and PE-labeled mAb to CD8 (clone alpha) and biotin-labeled mAb to CD45R (B220) from Invitrogen. PerCP-Cy5.5 was from BD/Pharmingan. Stained samples were analyzed on a FACScalibur™ using CELLQuest™ software (BD Biosciences, Franklin Lakes, N.J.).

MS = settings: daily calcitriol treatments, cited from earlier work
EAE = settings: mouse, in vivo; cited from earlier work
[2] = splenocytes 14 days after a 175 ng pulse dose, no significant differences from normal control mice

Q: With C=C1/C(=C\C=C2/CCC[C@]3(C)[C@@H]([C@H](C)CCCC(C)(C)O)CC[C@@H]23)C[C@@H](O)C[C@@H]1O [1,25-(OH)2D3, 1,25-dihydroxy vitamin D3] as the molecule, how does the “1,25-(OH)3D3 in the spinal cord” value [1] read?
A: The value was 18.8 ± 6.6 pmol/mL.

Q: And the “numbers of splenocytes recovered” value (splenocytes; 14 days after a 175 ng pulse dose, no significant differences from normal control mice)?
A: The value was 43±9 million cells.

Q: What about the “depletion of splenic lymphocytes and monocytes / immunodeficient state” value (splenocytes; B10.PL mice with EAE, 175 ng pulse dose, two weeks post treatment) of the same molecule?
A: The value was “did deplete; also recorded: did not result in an immunodeficient state”.

Q: What about the “proportion of B220+ B lymphocytes” value (splenocytes; [2]) of the same molecule?
A: The value was 63±3%.

Q: And the “proportion of CD4+ T lymphocytes” value (splenocytes; [2])?
A: Its value is 18±1%.

Q: What about the “proportion of CD8+ T lymphocytes” value (splenocytes; [2]) of the same molecule?
A: Its value is 11±1%.

Q: What about the “proportion of CD11b+ monocytes” value (splenocytes; [2]) of the same molecule?
A: Its value is 18±2%.

Q: What about the MS progression (MS) of the same molecule?
A: The MS progression was “completely inhibited”.

Q: And the “patients who withdrew from the trial with symptomatic hypercalcemia” value (MS)?
A: The value was 2 of the 15.

Q: And the “MS relapse rate (average)” value (MS; decreased from 1.0/yr)?
A: The value was 0.2 /yr.

Q: What about the EAE disease induction (EAE) of the same molecule?
A: Its EAE disease induction is “strongly inhibited”.

Q: And the EAE progression (EAE)?
A: Its EAE progression is “prevented progression”.

Q: What about the “established EAE disease” value (EAE) of the same molecule?
A: Its value is “reversed established disease”.
